Data: patent US20220288028A1, “A THERAPEUTIC APPROACH FOR TREATING NON-INFECTIOUS OCULAR IMMUNOINFLAMMATORY DISORDERS” (The Schepens Eye Research Institute, Inc., priority 2019, published 2022)
Where a name gives a salt, the structure may show the parent alone.

Key:
ocular redness [1] = experiment: Guinea pig model of allergic ocular redness induced by histamine, Ocular Redness Index (ORI); format: in vivo; settings: topical 1.0 mg/ml with 1.5 mg/ml histamine instillation, 20 μl; 1 hour; vs untreated induced control
From the text: (§1) An Image J-based, objective quantification method of ocular redness severity was developed without relying on ophthalmologists' subjective scoring (Amparo, et al. “The Ocular Redness Index: A Novel Automated Method for Measuring Ocular Injection.” Investigative Ophthalmology & Visual Science, 2013, pp. Quick submit: 2017-06-18T21:14:33-0400). This digital scoring method automatically analyzes patient eye images and gives the score as Ocular Redness Index (ORI), which ranges on a continuous centesimal scale from 0 to 100, with 100 the most severe redness. This method has been used in the animal models of ocular redness to evaluate the severity of redness.
(§2) The results obtained can be seen in FIGS. 10-14. In the evaluation of ocular redness in animal models using Ocular Redness Index (ORI) with Image J the following steps. Step 1: The conjunctival image was captured by means of a digital camera and was recorded as an RGB color JPEG image (3264×2448 pixels). […] Step 3: An ROI (Region Of Interest, area inside the yellow circle) was selected as the evaluation area by user, and the program read the red-green-blue (RGB) values of each pixel, converting it to huesaturation-value (HSV) space, and ultimately converted these values into a numeric centesimal value for redness in the selected area automatically. […]

ocular redness [2] = experiment: Rabbit model of non-allergic (non-infectious) ocular redness induced by dapiprazole, Ocular Redness Index (ORI); format: in vivo
From the text: as §1, §2

[3] = prevents use as an eye drop formulation; cited from earlier work
[4] = system: corneal epithelial wound healing; settings: subconjunctival injection, diabetic mice; cited from earlier work
DED mice [5] = experiment: Mouse model of DED, topical NK1R antagonist: flow cytometry of cornea, draining lymph nodes and conjunctivae; format: in vivo, C57BL/6 mice; settings: topical 1 μg/μl three times per day, day 14; for frequencies of MHC-II^hi CD11b^+ cells in the cornea: day 4 to 14; for frequencies of TH17 cells in the DLNs / frequencies of mature MHC-II^hi CD11b^+ cells in the DLNs / level of MHC-II expression by CD11b^+ cells in the DLNs: vs PBS
Procedure: (§3) Induction of Dry Eye Disease (DED): DED was induced by housing the mice in a low-humidity (relative humidity: <20%) controlled environment chamber (CEC) with constant airflow of 15 L/min and temperature of 21 to 23° C. for 14 days. Age- and sex-matched mice housed in room air conditions served as controls. Corneal epithelial disease was evaluated using fluorescein (Sigma-Aldrich) staining and scored using the National Eye Institute grading system (NEI, Bethesda, Md.; Chen Y. et al. IFN-gamma-Expressing TH17 Cells Are Required for Development of Severe Ocular Surface Autoimmunity. J Immunol 2017, 199:1163-9). 1 μl of 2.5% fluorescein was applied into the lateral conjunctival sac of the mice and after 3 minutes corneas were examined with a slit lamp biomicroscope under cobalt blue light. Punctate staining was recorded in a masked fashion with the standard National Eye Institute grading system of 0-3 for each of the five areas of the cornea.
Topical Treatment with NK1R Antagonist: Mice were assigned to one of four groups (n=5 each). 1 μg/μl of NK1R antagonists CP-99,994, L-733,060 (R&D systems, Minneapolis, MN) or PBS was administered topically three times per day from day 4 to day 14 after DED induction. Untreated DED mice served as controls.
Single Cell Suspension Preparation and Flow Cytometry: Submandibular and cervical draining lymph nodes (DLNs) were harvested and single cell suspensions were prepared. Cells were stimulated with phorbol 12-myristate 13-acetate (PMA, 50 ng/mL; Sigma-Aldrich) and Ionomycin (500 ng/mL; Sigma-Aldrich) for 6 hours in the presence of a commercial protein transport inhibitor (0.7 μL/100 μL media, Golgistop; BD Biosciences, San Jose, Calif.). Conjunctivae were harvested by lifting at the junction of bulbar and palpebral conjunctiva and dissecting along both bulbar and palpebral insertion points (Vannas Scissors; Storz, Bausch & Lomb). Conjunctiva samples were cultured in RPMI (Thermo Fisher Scientific, Waltham, Mass.) supplemented with 10% fetal bovine serum (FBS) and stimulated with PMA (50 ng/mL; Sigma-Aldrich) and Ionomycin (500 ng/mL; Sigma-Aldrich) in the presence of a protein transport inhibitor (0.7 μL/100 μL media, Golgistop; BD Biosciences) at 37° C. for 24 hours. Harvested corneas were digested in RPMI media containing 2 mg/ml collagenase type IV (Sigma-Aldrich) and 2 mg/ml DNase I (Roche) for 1 h at 37° C. The suspension was then filtered through a 70-μm cell strainer. Single-cell suspensions of DLN and cornea were stained with the following antibodies: Brilliant Violet 421-conjugated anti-mouse I-A/I-E (MHC-II), PE-conjugated anti-CD11c (BD Pharmingen, San Jose, Calif.), PerCP/Cy5.5-conjugated anti-CD11b, FITC-conjugated anti-CD4 (BioLegend, San Diego, Calif.), and PE-conjugated anti-interleukin 17A (eBioscience, San Diego, Calif.). Intranuclear staining with PE/Cy7-conjugated anti-Foxp3 (eBioscience) was performed after fixation and permeabilization of cells. Control samples were stained with appropriate isotype-matched antibodies. Stained cells were examined using an LSRII Flow Cytometer (BD Biosciences, Franklin Lakes, N.J., USA), and data were analyzed using commercial Summit software (Summit v4.3; Dako Colorado, Inc., Fort Collins, Colo.).

IL-17 = experiment: Mouse model of DED, topical NK1R antagonist: real-time PCR of conjunctivae; format: in vivo, C57BL/6 mice; settings: topical 1 μg/μl three times per day; day 14; vs PBS; p=0.001
Procedure: as §3, with “1 μl of 2.5% fluorescein was applied into the lateral conjunctival sac of the mice and after 3 minutes corneas were examined with a slit lamp biomicroscope under cobalt blue light.” left out, “cornea. […]” for “cornea.”
Real-Time PCR: Bulbar and palpebral conjunctiva, cornea and trigeminal ganglion were harvested from mice and stored in TRIzol reagent (Invitrogen, Carlsbad, Calif.) at −80° C. until RNA was isolated and reverse-transcribed using RNeasy micro kit (Qiagen, Valencia, Calif.) and SuperScript III kit (Invitrogen). […] Samples were analyzed using a real-time PCR system (LightCycler 480 II System; Roche Applied Science, Indianapolis, Ind.), and results were analyzed by the comparative threshold cycle method, using GAPDH as an internal control.

DED mice [6] = experiment: Mouse model of DED, topical NK1R antagonist: corneal fluorescein staining (CFS); format: in vivo, C57BL/6 mice; settings: topical 1 μg/μl three times per day, day 4 to 14; at day 7, 10 and 14; vs untreated and PBS-treated; p<0.05
From the text: FIGS. 6A, 6B, 7C, 8A-8C, and 9A-9D show the results of evaluating the in vivo therapeutic efficacy of blocking SP signaling in animal models of DED and ocular redness. DED was induced by exposing wild-type mice to desiccating stress using a controlled environment chamber for 14 days. No any other manipulations were used in the model. After 4 days induction, a clinical overt disease developed in mice (art-recognized model) and then a topical NK1R antagonist of either CP-99,994 or L-733,060, 3×/day, started and lasted for 10 days (until day 14). Untreated or PBS-treated mice serve as controls. Clinical severity of the disease was evaluated by clinical fluorescein scoring (CFS) using the National Eye Institute/Industry NEI grading scheme. […]
Induction of Dry Eye Disease (DED): DED was induced by housing the mice in a low-humidity (relative humidity: <20%) controlled environment chamber (CEC) with constant airflow of 15 L/min and temperature of 21 to 23° C. for 14 days. […] Corneal epithelial disease was evaluated using fluorescein (Sigma-Aldrich) staining and scored using the National Eye Institute grading system (NEI, Bethesda, Md.; Chen Y. et al. IFN-gamma-Expressing TH17 Cells Are Required for Development of Severe Ocular Surface Autoimmunity. J Immunol 2017, 199:1163-9). […]

Row | SMILES | frequencies of MHC-II^hi CD11b^+ cells in the cornea (DED mice [5]) | frequencies of TH17 cells in the DLNs (DED mice [5]) | frequencies of mature MHC-II^hi CD11b^+ cells in the DLNs (DED mice [5]) | level of MHC-II expression by CD11b^+ cells in the DLNs (DED mice [5]) | mRNA expression levels of IL-17 in conjunctivae (IL-17) | CFS scores and DED severity (DED mice [6]) | further results
1 | Ic1ccccc1CN[C@@H]1C2CCN(CC2)[C@@H]1C(c1ccccc1)c1ccccc1 (racemic) [L-703,606] | – | – | – | – | – | – | ocular redness (change in ORI score) (ocular redness [1]): rapidly and consistently ameliorating the ocular redness; ocular redness (change in ORI score) (ocular redness [2]; topical 1.0 mg/ml with 5% dapiprazole instillation, 40 μl, 1 hour, vs untreated induced control): rapidly and consistently ameliorating the ocular redness
2 | C[C@@H](O[C@H]1OCCN(Cc2n[nH]c(=O)[nH]2)[C@H]1c1ccc(F)cc1)c1cc(C(F)(F)F)cc(C(F)(F)F)c1 [MK-869, 5-[[(2R,3S)-2-[(1R)-[3,5-Bis(trifluoromethyl)phenyl]ethoxy]-3-(4-fluorophenyl)-4-morpholinylinyl]methyl]-1,2-dihydro-3H-1,2,4-triazol-3-one] | – | – | – | – | – | – | water solubility [3]: Poor water solubility
3 | FC(F)(F)c1cc(CO[C@H]2CCCN[C@H]2c2ccccc2)cc(C(F)(F)F)c1 [L-733,060, (2S,3S)-3-[[3,5-bis(Trifluoromethyl)phenyl]methoxy]-2-phenylpiperidine hydrochloride] | significantly lower | significantly decreased | significant decrease | significant decrease | significant reduction | significantly reduced CFS scores and DED severity | protective role of SP on epithelial healing [4]: significantly inhibits the protective role of SP on epithelial healing
4 | COc1ccccc1CN[C@H]1CCCN[C@H]1c1ccccc1 [CP-99,994, (2S,3S)-N-[(2-Methoxyphenyl)methyl]-2-phenyl-3-piperidinamine dihydrochloride] | significantly lower | significantly decreased | significant decrease | significant decrease | significant reduction | significantly reduced CFS scores and DED severity | –
5 | Cc1ccccc1N1CCN(CCc2nnc3n2CCCC3)CC1 [dapiprazole] | – | – | – | – | – | – | change in ORI score after induction (ocular redness [2]; 5% dapiprazole, 40 μl topical, series of increasing concentrations, 1-hour observation, vs PBS): highest increase in ORI score
